The values that follow come from US9499535B2, “Kinase inhibitors” (ORIGENIS GMBH, priority 2011, dated 2016).

pKi: −log10 of the molar value.

The experiment has as its target T1, SYK kinase (Homo sapiens, UniProt P43405).
T1 construct: purchased Invitrogen, Carlsbad
Kind of experiment: SYK assay (OMNIA Kinase Assay, Invitrogen). Format: biochemical. To be noted: apparent Ki calculated from the IC50 using the Cheng-Prusoff equation; 1 mM ATP, 10 μM Peptide Substrate; read-out: SYK Activities: Ki. As to the method: In the assay OMNIA® KINASE ASSAY by Invitrogen Corporation (Carlsbad) the effect of invention of a compound on the phosphorylation is determined by measurement of fluorescence intensity of a chelation-enhanced fluorophore called SOX. Upon phosphorylation of the peptide by the kinase of interest, Mg2+ is chelated to form a bridge between the SOX moiety and the phosphate group that is transferred to the specific tyrosine on the peptide. The fluorescence intensity is directly proportional to the amount of peptide phosphorylation.
To the wells of an 384 well small volume plate (Greiner, Frickenhausen) are added (i) the compound under test in 5% DMSO/distilled water (2 μl), (ii) 16 μl of the master mix containing ATP, DTT, Kinase Reaction Buffer, Omina Peptide Substrate Tyr 7 resulting in a final concentration of 1 mM ATP, 0.2 mM DTT and 10 μM Peptide Substrate.
The Master Mix and the assay plate was incubated to reaction temperature before the measurement (30° C.). The reaction was started with addition of (iii) 2 μl 4 μg/ml SYK kinase (Invitrogen, Carlsbad). During measurement fluorescence intensitiy readings were collected using a TECAN M1000 at a wavelength of λex 360/λem 485 nm every 30 s for 30 minutes. The reaction velocity was plotted versus the inhibitor concentration to determine the IC50 using XLFit 5.0 (IDBS, Guildford) to fit to a sigmoidal dose response curve, and the apparent Ki values were calculated from the IC50 using the Cheng-Prusoff equation (Cheng, Y.; Prusoff, W. H. Biochem. Pharmacol. 22, 3099-3108, 1973).
The term pKi denotes −log10 of the Ki, conventionally taken in molar units. As to `O=C1COc2ccc(Nc3nc4cc(F)ccc4c4cn[nH]c34)cc2N1` [Example #334, 6-((7-fluoro-3H-pyrazolo[3,4-c]quinolin-4-yl)amino)-2H-benzo[b][1,4]oxazin-3(4H)-one], the pKi was 7.00 to 8.00.

For `COc1ccc(Nc2nc3snc(C)c3c3c[nH]nc23)cc1OC` [Example #218, (3,4-Dimethoxy-phenyl)-(1-methyl-7H-3-thia-2,4,6,7-tetraaza-as-indacen-5-yl)-amine], the pKi is 6.00 to 7.00. Then `c1ccc2c(c1)nc(Nc1ccc3[nH]cnc3c1)c1n[nH]cc12` [Example #17, (1H-Benzoimidazol-5-yl)-(2H-pyrazolo[3,4-c]quinolin-4-yl)-amine], with 6.00 to 7.00. With `COc1ccc2nc(Nc3cccc(S(F)(F)(F)(F)F)c3)c3n[nH]cc3c2c1` [Example #309, 8-methoxy-N-(3-(pentafluorosulfanyl)phenyl)-2H-pyrazolo[3,4-c]quinolin-4-amine], the pKi was 6.00 to 7.00. With `COc1ccc2nc(Nc3ccc(C(=O)N4CCCC4)cc3)c3n[nH]cc3c2c1` [Example #231, [4-(8-Methoxy-2H-pyrazolo[3,4-c]quinolin-4-ylamino)-phenyl]-pyrrolidin-1-yl-methanone] the figure was 6.00 to 7.00; with `c1ccc(Nc2nc3ccccc3c3cn[nH]c23)nc1` [Example #28, (3H-Pyrazolo[3,4-c]quinolin-4-yl)-pyridin-2-yl-amine], 6.00 to 7.00. On to `FC(F)(F)c1cccc(Nc2nc3ccccc3c3c[nH]nc23)c1` [Example #2, (2H-Pyrazolo[3,4-c]quinolin-4-yl)-(3-trifluoromethyl-phenyl)-amine], for which the pKi was 6.00 to 7.00. With `COc1ccc2nc(Nc3cccc(-n4nccn4)c3)c3n[nH]cc3c2c1` [Example #347, N-(3-(2H-1,2,3-triazol-2-yl)phenyl)-8-methoxy-2H-pyrazolo[3,4-c]quinolin-4-amine] the figure was 6.00 to 7.00; with `COc1ccc2nc(Nc3cc(C)ccn3)c3n[nH]cc3c2c1` [Example #154, (8-Methoxy-2H-pyrazolo[3,4-c]quinolin-4-yl)-(4-methyl-pyridin-2-yl)-amine], 6.00 to 7.00.

`COc1cccc2c1nc(Nc1ccc3c(c1)OCO3)c1n[nH]cc12` [Example #249, Benzo[1,3]dioxol-5-yl-(6-methoxy-2H-pyrazolo[3,4-c]quinolin-4-yl)-amine]: the pKi is 6.00 to 7.00. Then `COc1ccc2nc(Nc3nnc(C4CC4)[nH]3)c3n[nH]cc3c2c1` [Example #141, (5-Cyclopropyl-4H-[1,2,4]triazol-3-yl)-(8-methoxy-2H-pyrazolo[3,4-c]quinolin-4-yl)-amine], with 6.00 to 7.00. With `COc1ccc2c(c1)nc(Nc1ccc3c(c1)OCO3)c1n[nH]cc12` [Example #267, Benzo[1,3]dioxol-5-yl-(7-methoxy-2H-pyrazolo[3,4-c]quinolin-4-yl)-amine] the figure was 7.00 to 8.00. Then `COc1cccc(Nc2nc3ccc(OC)cc3c3c[nH]nc23)c1` [Example #60, (3-Methoxy-phenyl)-(8-methoxy-2H-pyrazolo[3,4-c]quinolin-4-yl)-amine], with 7.00 to 8.00. For the compound `CN1CCCN(c2ccc(Nc3nc4ccccc4c4c[nH]nc34)cc2)CC1` [Example #27, [4-(4-Methyl-[1,4]diazepan-1-yl)-phenyl]-(2H-pyrazolo[3,4-c]quinolin-4-yl)-amine], the pKi is 6.00 to 7.00. Then `COc1ccc2nc(Nc3cccc(OC)c3OC)c3n[nH]cc3c2c1` [Example #331, N-(2,3-dimethoxyphenyl)-8-methoxy-2H-pyrazolo[3,4-c]quinolin-4-amine], with 6.00 to 7.00; and `Fc1ccc2c(c1)nc(Nc1ccc(N3CCOCC3)cc1)c1[nH]ncc12` [Example #335, 7-fluoro-N-(4-morpholinophenyl)-3H-pyrazolo[3,4-c]quinolin-4-amine], with 7.00 to 8.00; and `CN1CCN(c2ccc(Nc3nc4ccccc4c4c[nH]nc34)cc2)CC1` [Example #26, [4-(4-Methyl-piperazin-1-yl)-phenyl]-(2H-pyrazolo[3,4-c]quinolin-4-yl)-amine], with 6.00 to 7.00. As for `COc1ccc(Nc2nc3ccccc3c3c([N+](=O)[O-])[nH]nc23)cc1OC` [Example #213, (3,4-Dimethoxy-phenyl)-(1-nitro-2H-pyrazolo[3,4-c]quinolin-4-yl)-amine], the pKi was 6.00 to 7.00. With `COc1ccc(Nc2nc3ccc(OC)cc3c3c[nH]nc23)c(OC)c1` [Example #332, N-(2,4-dimethoxyphenyl)-8-methoxy-2H-pyrazolo[3,4-c]quinolin-4-amine] the figure was 6.00 to 7.00; with `COc1ccc2nc(Nc3ccc4cc[nH]c4c3)c3[nH]ncc3c2c1` [Example #75, (1H-Indol-6-yl)-(8-methoxy-3H-pyrazolo[3,4-c]quinolin-4-yl)-amine], 6.00 to 7.00; with `COc1ccc2nc(Nc3ccc(-n4nccn4)cc3)c3n[nH]cc3c2c1` [Example #345, N-(4-(2H-1,2,3-triazol-2-yl)phenyl)-8-methoxy-2H-pyrazolo[3,4-c]quinolin-4-amine], 6.00 to 7.00. Then `COc1ccc(Nc2nc3ccccc3c3c(C(F)(F)F)[nH]nc23)cc1OC` [Example #210, (3,4-Dimethoxy-phenyl)-(1-trifluoromethyl-2H-pyrazolo[3,4-c]quinolin-4-yl)-amine], with 6.00 to 7.00. On to `Cc1cc(Nc2nc3ccccc3c3c[nH]nc23)cc2cn[nH]c12` [Example #8, (7-Methyl-1H-indazol-5-yl)-(2H-pyrazolo[3,4-c]quinolin-4-yl)-amine], for which the pKi is 6.00 to 7.00. Then `COc1ccc2nc(Nc3nc4c(s3)CCCC4)c3n[nH]cc3c2c1` [Example #158, (8-Methoxy-2H-pyrazolo[3,4-c]quinolin-4-yl)-(4,5,6,7-tetrahydro-benzothiazol-2-yl)-amine], with 6.00 to 7.00. In the case of `CN1CCN(c2ccc(Nc3nc4ccccc4c4c([N+](=O)[O-])[nH]nc34)cc2)CC1` [Example #214, [4-(4-Methyl-piperazin-1-yl)-phenyl]-(1-nitro-2H-pyrazolo[3,4-c]quinolin-4-yl)-amine], the pKi is 6.00 to 7.00. For the compound `c1cc2c(cn1)nc(Nc1ccc3cn[nH]c3c1)c1n[nH]cc12` [Example #91, (1H-Indazol-6-yl)-(2H-2,3,5,7-tetraaza-cyclopenta[a]naphthalen-4-yl)-amine], the pKi is 7.00 to 8.00. With `COc1ccc(Nc2nc3cc(C#N)ccc3c3c(C)[nH]nc23)cc1OC` [Example #226, 4-(3,4-Dimethoxy-phenylamino)-1-methyl-2H-pyrazolo[3,4-c]quinoline-7-carbonitrile] the figure was over 8.00. Then `COc1ccc2nc(Nc3ccc(N4CCCC4)cc3)c3n[nH]cc3c2c1` [Example #79, (8-Methoxy-2H-pyrazolo[3,4-c]quinolin-4-yl)-(4-pyrrolidin-1-yl-phenyl)-amine], with 6.00 to 7.00; and `N#Cc1ccc2nc(Nc3ccc(N4CCOCC4)cc3)c3n[nH]cc3c2c1` [Example #217, 4-(4-Morpholin-4-yl-phenylamino)-2H-pyrazolo[3,4-c]quinoline-8-carbonitrile], with over 8.00. Turning to `FC(F)(F)c1[nH]nc2c(Nc3ccc4cn[nH]c4c3)nc3ccccc3c12` [Example #212, (1H-Indazol-6-yl)-(1-trifluoromethyl-2H-pyrazolo[3,4-c]quinolin-4-yl)-amine], the pKi is 6.00 to 7.00.
